Measurements published in patent US6703362B1, “Random peptides that bind to gastro-intestinal tract (GIT) transport receptors and related methods” (Cytogen Corporation, priority 1997, dated 2004).
Peptide text beside a SMILES is read from it. * marks the point of attachment. Dansyl = CN(C)c1cccc2c(S(=O)(=O)*)cccc12

Columns and labels:
fixed Caco-2 cells = test: Inhibition of GST-peptide fusion binding to fixed Caco-2 cells by synthetic peptides; details: peptide from 100 μg/ml serially diluted; GST fusion 10 μg
From the text: Caco-2 cells were fixed, treated with phenylhydrazine and blocked as described above. […] GST-PAX2 binding was inhibited by ZElan032, ZElan033, and ZElan035.

[1] = tested on: P100 membrane fractions derived from Caco-2 cells; test: Dansylated peptide ELISA: relative binding of PAX2 and HAX42 peptides to P100 (ratio to ZElan021); details: ratio to ZElan021 = 1.00
Description: The peptides and proteins were analyzed by a dansylated peptide ELISA method in which 96 well plates were coated overnight at 4° C. with 100 μl/well coating protein (normally 100 μg/ml P100 membrane fraction) in 0.05M carbonate buffer pH9.6. Nonspecific binding was blocked using 200 μl/well, 2% Marvel/PBS for 2 hours at 37° C. prior to incubation with dansylated peptides. The plates were washed three times with PBS/0.05% Tween 20 and after each subsequent incubation step. […] A buffer blank control was included to ensure that background binding to plastic was not due to the antibodies used in the assay system. […] The plates were then incubated with an anti-mouse X-HRP conjugated antibody (Southern Biotech 1060-05) at a 1:10,000 dilution in blocking solution, 100 μl/well for 1 hour at room temperature. Plates were developed using 75 μl/well Bionostics TMB substrate and incubated for approximately 10 minutes. The developing reaction was stopped using Bionostics Red Stop solution (25 μl/well), and the optical density of the plates was read at 650nm.

[2] = HAX42 peptides, first 50 μg/ml column
[3] = HAX42 peptides, second 50 μg/ml column
[4] = PAX2 peptides, first 20 μg/ml column
[5] = PAX2 peptides, first 50 μg/ml column
[6] = PAX2 peptides, second 50 μg/ml column

Molecule | Binding value at 20 μg/ml ([1]; HAX42 peptides) | Binding value at 50 μg/ml [1, 2] | Binding value at 50 μg/ml [1, 3] | Binding value at 20 μg/ml [1, 4] | Binding value at 50 μg/ml [1, 5] | Binding value at 50 μg/ml [1, 6] | also measured
H-K(Dansyl)SARDSGPAEDGSRAVRLNGVENANTRKSSRSNPRGRRHPGG-NH2 [ZElan024] |  |  |  |  |  |  | inhibition of GST-P31 binding (fixed Caco-2 cells): inhibited
CC(C)C[C@H](NC(=O)[C@H](C)NC(=O)[C@H](Cc1c[nH]cn1)NC(=O)[C@H](CC(=O)O)NC(=O)[C@H](CO)NC(=O)[C@@H](N)CCCCNS(=O)(=O)c1cccc2c(N(C)C)cccc12)C(=O)NCC(=O)N[C@H](C(=O)N[C@@H](CC(N)=O)C(=O)N[C@@H](CC(C)C)C(=O)N[C@@H](CCCNC(=N)N)C(=O)N[C@@H](CO)C(=O)N[C@@H](CC(=O)O)C(=O)N[C@@H](CC(N)=O)C(=O)N[C@@H](C)C(=O)N[C@@H](CCCCN)C(=O)N[C@@H](CCC(=O)O)C(=O)N1CCC[C@H]1C(=O)NCC(=O)N[C@@H](CC(=O)O)C(=O)N[C@@H](Cc1ccc(O)cc1)C(=O)N[C@@H](CC(N)=O)C(=O)N[C@@H](CS)C(=O)N[C@@H](CS)C(=O)NCC(=O)N[C@@H](CC(N)=O)C(=O)NCC(=O)N[C@@H](CC(N)=O)C(=O)N[C@@H](CO)C(=O)N[C@H](C(N)=O)[C@@H](C)O)[C@@H](C)O [ZElan070] (H-K(Dansyl)SDHALGTNLRSDNAKEPGDYNCCGNGNST-NH2) | 0.59 | 0.97 | 0.39 |  |  |  | 
CC(C)C[C@H](NC(=O)[C@H](C)NC(=O)[C@H](Cc1c[nH]cn1)NC(=O)[C@H](CC(=O)O)NC(=O)[C@H](CO)NC(=O)[C@@H](N)CCCCNS(=O)(=O)c1cccc2c(N(C)C)cccc12)C(=O)NCC(=O)N[C@H](C(=O)N[C@@H](CC(N)=O)C(=O)N[C@@H](CC(C)C)C(=O)N[C@@H](CCCNC(=N)N)C(=O)N[C@@H](CO)C(=O)N[C@@H](CC(=O)O)C(=O)N[C@@H](CC(N)=O)C(=O)N[C@@H](C)C(=O)N[C@@H](CCCCN)C(=O)N[C@@H](CCC(=O)O)C(=O)N1CCC[C@H]1C(=O)NCC(N)=O)[C@@H](C)O [ZElan062] (H-K(Dansyl)SDHALGTNLRSDNAKEPG-NH2) | 0.11 | 0.42 | 0.34 |  |  |  | 
C[C@H](NC(=O)[C@H](CC(N)=O)NC(=O)[C@@H](NC(=O)[C@@H](N)CCCCNS(=O)(=O)c1cccc2c(N(C)C)cccc12)[C@@H](C)O)C(=O)N[C@@H](CCCCN)C(=O)N[C@@H](Cc1c[nH]cn1)C(=O)N[C@@H](CO)C(=O)N[C@@H](CO)C(=O)N[C@@H](Cc1c[nH]cn1)C(=O)N[C@@H](CC(N)=O)C(N)=O [ZElan055] (H-K(Dansyl)TNAKHSSHN-NH2) |  |  |  | 0.99 | 1.10 | 0.59 | Binding value at 20 μg/ml ([1]; PAX2 peptides, second 20 μg/ml column): 0.73
CC(C)C[C@H](NC(=O)[C@H](C)NC(=O)[C@H](Cc1c[nH]cn1)NC(=O)[C@H](CC(=O)O)NC(=O)[C@H](CO)NC(=O)[C@@H](N)CCCCNS(=O)(=O)c1cccc2c(N(C)C)cccc12)C(=O)NCC(=O)N[C@H](C(=O)N[C@@H](CC(N)=O)C(=O)N[C@@H](CC(C)C)C(=O)N[C@@H](CCCNC(=N)N)C(=O)N[C@@H](CO)C(=O)N[C@@H](CC(=O)O)C(=O)N[C@@H](CC(N)=O)C(=O)N[C@@H](C)C(=O)N[C@@H](CCCCN)C(=O)N[C@@H](CCC(=O)O)C(=O)N1CCC[C@H]1C(=O)NCC(=O)N[C@@H](CC(=O)O)C(=O)N[C@@H](Cc1ccc(O)cc1)C(=O)N[C@@H](CC(N)=O)C(=O)N[C@@H](CS)C(=O)N[C@@H](CS)C(=O)NCC(=O)N[C@@H](CC(N)=O)C(=O)NCC(N)=O)[C@@H](C)O [ZElan060] (H-K(Dansyl)SDHALGTNLRSDNAKEPGDYNCCGNG-NH2) | 0.44 | 0.56 | 0.43 |  |  |  | 
CC(C)C[C@H](NC(=O)[C@H](CCCNC(=N)N)NC(=O)[C@H](CCCNC(=N)N)NC(=O)[C@H](CC(N)=O)NC(=O)[C@H](Cc1c[nH]cn1)NC(=O)[C@H](CO)NC(=O)[C@H](CO)NC(=O)[C@@H](N)CCCCNS(=O)(=O)c1cccc2c(N(C)C)cccc12)C(=O)N[C@@H](CCCNC(=N)N)C(=O)N[C@@H](C)C(=O)N[C@@H](CCCNC(=N)N)C(N)=O [ZElan081] (H-K(Dansyl)SSHNRRLRAR-NH2) |  |  |  | 0.01 | 0.89 | 0.47 | 
CN(C)c1cccc2c(S(=O)(=O)NCCCC[C@H](N)C(=O)N[C@@H](CC(N)=O)C(=O)N[C@@H](CCCNC(=N)N)C(=O)N[C@@H](CCCNC(=N)N)C(=O)N[C@@H](CCCNC(=N)N)C(=O)N3CCC[C@H]3C(=O)N[C@@H](CO)C(N)=O)cccc12 [ZElan067, H2N—K(dns)NRRRPS—CONH2] (H-K(Dansyl)NRRRPS-NH2) | 0.08 | 0.52 | 0.40 |  |  |  | 
CC(C)C[C@H](NC(=O)[C@H](CCCNC(=N)N)NC(=O)[C@H](CCCNC(=N)N)NC(=O)[C@H](CC(N)=O)NC(=O)[C@H](Cc1c[nH]cn1)NC(=O)[C@H](CO)NC(=O)[C@H](CO)NC(=O)[C@@H](N)CCCCNS(=O)(=O)c1cccc2c(N(C)C)cccc12)C(=O)N[C@@H](C)C(=O)N[C@H](C(=O)N[C@@H](CCCNC(=N)N)C(N)=O)[C@@H](C)O [ZElan080] (H-K(Dansyl)SSHNRRLATR-NH2) |  |  |  | 0.23 | 0.84 | 0.45 | Binding value at 50 μg/ml (Jackson Ab) ([1]; PAX2 peptides): 0.67; Binding value at 50 μg/ml (Southern Ab) ([1]; PAX2 peptides): 0.38
CC(C)C[C@H](NC(=O)[C@H](C)NC(=O)[C@H](CCCNC(=N)N)NC(=O)[C@H](CC(N)=O)NC(=O)[C@H](Cc1c[nH]cn1)NC(=O)[C@H](CO)NC(=O)[C@H](CO)NC(=O)[C@@H](N)CCCCNS(=O)(=O)c1cccc2c(N(C)C)cccc12)C(=O)N[C@@H](CCCNC(=N)N)C(=O)N[C@H](C(=O)N[C@@H](CCCNC(=N)N)C(N)=O)[C@@H](C)O [ZElan078] (H-K(Dansyl)SSHNRALRTR-NH2) |  |  |  | 0.11 | 0.87 | 0.69 | Binding value at 50 μg/ml (Jackson Ab) ([1]; PAX2 peptides): 0.68; Binding value at 50 μg/ml (Southern Ab) ([1]; PAX2 peptides): 0.47
CC[C@H](C)[C@H](NC(=O)[C@H](C)NC(=O)[C@H](CO)NC(=O)[C@@H]1CCCN1C(=O)[C@H](CCCNC(=N)N)NC(=O)[C@H](CCCNC(=N)N)NC(=O)[C@H](CCCNC(=N)N)NC(=O)[C@H](CC(N)=O)NC(=O)[C@H](Cc1ccccc1)NC(=O)[C@@H](NC(=O)[C@H](CCCCN)NC(=O)[C@H](CCCNC(=N)N)NC(=O)CNC(=O)[C@@H](NC(=O)[C@H](CO)NC(=O)[C@H](CC(N)=O)NC(=O)CNC(=O)[C@H](CC(N)=O)NC(=O)CNC(=O)[C@H](CS)NC(=O)[C@H](CS)NC(=O)[C@H](CC(N)=O)NC(=O)[C@H](Cc1ccc(O)cc1)NC(=O)[C@H](CC(=O)O)NC(=O)CNC(=O)[C@@H](N)CCCCNS(=O)(=O)c1cccc2c(N(C)C)cccc12)[C@@H](C)O)C(C)C)C(=O)N1CCC[C@H]1C(=O)N[C@H](C(N)=O)[C@@H](C)O [ZElan061] (H-K(Dansyl)GDYNCCGNGNSTGRKVFNRRRPSAIPT-NH2) | 0.20 | 0.60 | 0.38 |  |  |  | 
CC(C)C[C@H](NC(=O)[C@H](CCCNC(=N)N)NC(=O)[C@H](CCCNC(=N)N)NC(=O)[C@H](CC(N)=O)NC(=O)[C@H](Cc1c[nH]cn1)NC(=O)[C@H](CO)NC(=O)[C@H](CO)NC(=O)[C@@H](N)CCCCNS(=O)(=O)c1cccc2c(N(C)C)cccc12)C(=O)N[C@@H](CCCNC(=N)N)C(=O)N[C@H](C(=O)N[C@@H](C)C(N)=O)[C@@H](C)O [ZElan082] (H-K(Dansyl)SSHNRRLRTA-NH2) |  |  |  | 0.00 | 0.92 | 0.40 | 
CC(C)C[C@H](NC(=O)[C@H](CC(N)=O)NC(=O)[C@@H](N)CCCCNS(=O)(=O)c1cccc2c(N(C)C)cccc12)C(=O)N[C@@H](CCCNC(=N)N)C(=O)N[C@@H](CO)C(=O)N[C@@H](CC(=O)O)C(=O)N[C@@H](CC(N)=O)C(=O)N[C@@H](C)C(=O)N[C@@H](CCCCN)C(=O)N[C@@H](CCC(=O)O)C(=O)N1CCC[C@H]1C(=O)NCC(=O)N[C@@H](CC(=O)O)C(=O)N[C@@H](Cc1ccc(O)cc1)C(=O)N[C@@H](CC(N)=O)C(=O)N[C@@H](CS)C(=O)N[C@@H](CS)C(=O)NCC(=O)N[C@@H](CC(N)=O)C(=O)NCC(=O)N[C@@H](CC(N)=O)C(=O)N[C@@H](CO)C(=O)N[C@H](C(=O)NCC(=O)N[C@@H](CCCNC(=N)N)C(=O)N[C@@H](CCCCN)C(=O)N[C@H](C(=O)N[C@@H](Cc1ccccc1)C(=O)N[C@@H](CC(N)=O)C(=O)N[C@@H](CCCNC(=N)N)C(N)=O)C(C)C)[C@@H](C)O [ZElan071] (H-K(Dansyl)NLRSDNAKEPGDYNCCGNGNSTGRKVFNR-NH2) | 1.22 | 0.89 | 0.75 |  |  |  | 
